In PubChem BioAssay AID256 (DTP/NCI, 2004):
“And” between values parts separate entries of the source, which are not always exact repeats. Equal values may be shown once. Toxic doses and inconclusive results are not listed.

System: CD2F1 mice, L1210 leukemia ip, survival T/C
Test: NCI In Vivo Anticancer Drug Screen. Data for tumor model L1210 Leukemia (intraperitoneal) in CD2F1 (CDF1) mice
Details: higher = longer survival
Summary of the method: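 Transplantable tumor in mice; compound-treated vs vehicle-treated groups. Read-out = treated/control ratio of the measured endpoint.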

[1] = endpoint: mean survival time, dose: 100.0 mg/kg/injection, schedule: Q04DX002 (ip), vehicle: saline with Tween-80
[2] = endpoint: mean survival time, dose: 200.0 mg/kg/injection, schedule: Q04DX002 (ip), vehicle: saline with Tween-80
[3] = endpoint: mean survival time, dose: 400.0 mg/kg/injection, schedule: Q04DX002 (ip), vehicle: saline with Tween-80
[4] = endpoint: mean survival time, dose: 100.0 mg/kg/injection, schedule: Q04DX003 (ip), vehicle: saline with Tween-80
[5] = endpoint: mean survival time, dose: 200.0 mg/kg/injection, schedule: Q04DX003 (ip), vehicle: saline with Tween-80
[6] = endpoint: mean survival time, dose: 100.0 mg/kg/injection, schedule: Q01DX009 (ip), vehicle: saline with Tween-80
[7] = endpoint: mean survival time, dose: 200.0 mg/kg/injection, schedule: Q01DX009 (ip), vehicle: saline with Tween-80
[8] = endpoint: mean survival time, dose: 400.0 mg/kg/injection, schedule: Q01DX009 (ip), vehicle: saline with Tween-80
[9] = endpoint: mean survival time, dose: 400.0 mg/kg/injection, schedule: Q04DX003 (ip), vehicle: saline with Tween-80
[10] = endpoint: mean survival time, dose: 50.0 mg/kg/injection, schedule: Q01DX009 (ip), vehicle: saline
[11] = endpoint: mean survival time, dose: 100.0 mg/kg/injection, schedule: Q01DX009 (ip), vehicle: saline
[12] = endpoint: mean survival time, dose: 100.0 mg/kg/injection, schedule: Q04DX003 (ip), vehicle: saline
[13] = endpoint: mean survival time, dose: 75.0 mg/kg/injection, schedule: Q01DX001 (ip), vehicle: saline
[14] = endpoint: mean survival time, dose: 200.0 mg/kg/injection, schedule: Q04DX003 (ip), vehicle: saline
[15] = endpoint: mean survival time, dose: 400.0 mg/kg/injection, schedule: Q04DX003 (ip), vehicle: saline

SMILES: CC(=O)CC(C)=Nc1cccc(Cl)c1
- T/C [1]: 98 % of control
- T/C [2]: 95 % of control
- T/C [3]: 95 % of control

SMILES: CC1(CO)CCCC2(C)C3=C(CCCC3)CCC12 (stereo unspecified)
- T/C (endpoint: mean survival time, dose: 50.0 mg/kg/injection, schedule: Q04DX003 (ip), vehicle: saline with Tween-80): 97 % of control
- T/C [4]: 101 % of control
- T/C [5]: 97 % of control

SMILES: CCOC(=O)CC(=O)c1ccc(C(=O)CC(=O)OCC)cc1
- T/C (endpoint: mean survival time, dose: 100.0 mg/kg/injection, schedule: Q01DX001 (ip), vehicle: saline with Tween-80): 89 % of control
- T/C (endpoint: mean survival time, dose: 200.0 mg/kg/injection, schedule: Q01DX001 (ip), vehicle: saline with Tween-80): 89 % of control
- T/C (endpoint: mean survival time, dose: 400.0 mg/kg/injection, schedule: Q01DX001 (ip), vehicle: saline with Tween-80): 89 % of control

SMILES: O=[N+]([O-])c1c(Cl)c(Cl)cc(Cl)c1Cl
- T/C [6]: 94 % of control
- T/C [4]: 93 % of control
- T/C [7]: 96 % of control
- T/C [5]: 97 % of control
- T/C [8]: 98 % of control
- T/C [9]: 98 % of control

SMILES: OC1CCC(CC2CCCCC2)CC1 (stereo unspecified)
- T/C [6]: 95 % of control
- T/C [7]: 92 % of control

SMILES: CCN(CC)CCC(O)c1ccc2c3ccccc3n(C)c2c1 (stereo unspecified)
- T/C [1]: 109 % of control

SMILES: CC1SC(=S)N(c2ccccc2)C1=O (stereo unspecified)
- T/C [4]: 112 % of control
- T/C [5]: 97 % of control
- T/C [9]: 101 % of control

SMILES: CN(C)c1ccc(/C=C2/CCCC/C2=N/O)cc1
- T/C (endpoint: mean survival time, dose: 100.0 mg/kg/injection, schedule: Q04DX003 (ip), vehicle: Klucel (hydroxypropylcellulose) (HPC)): 102 % of control
- T/C (endpoint: mean survival time, dose: 200.0 mg/kg/injection, schedule: Q04DX003 (ip), vehicle: Klucel (hydroxypropylcellulose) (HPC)): 94 % of control
- T/C (endpoint: mean survival time, dose: 400.0 mg/kg/injection, schedule: Q04DX003 (ip), vehicle: Klucel (hydroxypropylcellulose) (HPC)): 98 % of control

SMILES: CC(C)(O)C(Cl)S(=O)c1ccccc1 (stereo unspecified)
- T/C (endpoint: mean survival time, dose: 37.5 mg/kg/injection, schedule: Q04DX003 (ip), vehicle: saline with Tween-80): 100 % of control
- T/C (endpoint: mean survival time, dose: 75.0 mg/kg/injection, schedule: Q04DX003 (ip), vehicle: saline with Tween-80): 100 % of control
- T/C (endpoint: mean survival time, dose: 85.0 mg/kg/injection, schedule: Q04DX002 (ip), vehicle: saline with Tween-80): 88 % of control
- T/C (endpoint: mean survival time, dose: 150.0 mg/kg/injection, schedule: Q04DX003 (ip), vehicle: saline with Tween-80): 103 % of control
- T/C (endpoint: mean survival time, dose: 190.0 mg/kg/injection, schedule: Q04DX002 (ip), vehicle: saline with Tween-80): 90 % of control
- T/C (endpoint: mean survival time, dose: 300.0 mg/kg/injection, schedule: Q04DX003 (ip), vehicle: saline with Tween-80): 102 % of control

SMILES: O=S1(=O)CC=CC1
- T/C [6]: 98 % of control
- T/C (endpoint: mean survival time, dose: 100.0 mg/kg/injection, schedule: Q04DX003 (ip), vehicle: saline sonified): 103 % of control
- T/C [7]: 101 % of control
- T/C (endpoint: mean survival time, dose: 200.0 mg/kg/injection, schedule: Q04DX003 (ip), vehicle: saline sonified): 106 % of control
- T/C [8]: 101 % of control
- T/C (endpoint: mean survival time, dose: 400.0 mg/kg/injection, schedule: Q04DX003 (ip), vehicle: saline sonified): 95 % of control

SMILES: CCN(CC)Cc1ccccn1
- T/C (endpoint: mean survival time, dose: 25.0 mg/kg/injection, schedule: Q01DX009 (ip), vehicle: saline): 94 % of control
- T/C [10]: 97 % of control
- T/C [11]: 92 % of control
- T/C [12]: 95 % of control

SMILES: O=P1(Cc2ccccc2)C(c2ccccc2)=C(O)C2CCCC21 (stereo unspecified)
- T/C (endpoint: mean survival time, dose: 50.0 mg/kg/injection, schedule: Q01DX009 (ip), vehicle: Klucel (hydroxypropylcellulose) (HPC)): 97 % of control
- T/C (endpoint: mean survival time, dose: 100.0 mg/kg/injection, schedule: Q01DX009 (ip), vehicle: Klucel (hydroxypropylcellulose) (HPC)): 97 % of control
- T/C (endpoint: mean survival time, dose: 200.0 mg/kg/injection, schedule: Q01DX009 (ip), vehicle: Klucel (hydroxypropylcellulose) (HPC)): 89 % of control

SMILES: Nc1ncnc2c1c1cncnc1n2C1OC(CO)C(O)C1O (stereo unspecified)
- T/C (endpoint: mean survival time, dose: 12.5 mg/kg/injection, schedule: Q01DX005 (ip), vehicle: distilled water + Tween-80): 96 % of control
- T/C (endpoint: mean survival time, dose: 25.0 mg/kg/injection, schedule: Q01DX005 (ip), vehicle: distilled water + Tween-80): 98 % of control
- T/C (endpoint: mean survival time, dose: 50.0 mg/kg/injection, schedule: Q01DX005 (ip), vehicle: distilled water + Tween-80): 93 % of control
- T/C (endpoint: mean survival time, dose: 100.0 mg/kg/injection, schedule: Q01DX005 (ip), vehicle: distilled water + Tween-80): 90 % of control
- T/C (endpoint: mean survival time, dose: 200.0 mg/kg/injection, schedule: Q01DX005 (ip), vehicle: distilled water + Tween-80): 105 % of control
- T/C (endpoint: mean survival time, dose: 400.0 mg/kg/injection, schedule: Q01DX005 (ip), vehicle: distilled water + Tween-80): 110 % of control

SMILES: CC(O)C(=O)Oc1ccccc1 (stereo unspecified)
- T/C (endpoint: mean survival time, dose: 50.0 mg/kg/injection, schedule: Q01DX009 (ip), vehicle: other): 92 % of control
- T/C (endpoint: mean survival time, dose: 100.0 mg/kg/injection, schedule: Q01DX009 (ip), vehicle: other): 100 % of control
- T/C (endpoint: mean survival time, dose: 200.0 mg/kg/injection, schedule: Q01DX009 (ip), vehicle: other): 102 % of control

SMILES: N/N=C(/C(=O)c1ccccc1)c1ccccc1
- T/C [6]: 95 % of control
- T/C [7]: 97 % of control
- T/C [8]: 95 % of control

SMILES: CCOC(=O)/C=C/C(=O)[O-].CCOC(=O)/C=C/C(=O)[O-].NC1CCCCC1N.[Pt+4]
- T/C (endpoint: median survival time, dose: 3.12 mg/kg/injection, schedule: Q04DX003 (ip), vehicle: saline with Tween-80): 101 % of control and 103 % of control
- T/C (endpoint: median survival time, dose: 6.25 mg/kg/injection, schedule: Q04DX003 (ip), vehicle: saline with Tween-80): 103 % of control and 108 % of control
- T/C (endpoint: median survival time, dose: 12.5 mg/kg/injection, schedule: Q04DX003 (ip), vehicle: saline with Tween-80): 113 % of control and 112 % of control
- T/C (endpoint: median survival time, dose: 25.0 mg/kg/injection, schedule: Q04DX003 (ip), vehicle: saline with Tween-80): 123 % of control
- T/C (endpoint: median survival time, dose: 100.0 mg/kg/injection, schedule: Q04DX003 (ip), vehicle: saline with Tween-80): 164 % of control
- T/C (endpoint: median survival time, dose: 200.0 mg/kg/injection, schedule: Q04DX003 (ip), vehicle: saline with Tween-80): 166 % of control and 333 % of control

SMILES: CCO[Si](OCC)OCC
- T/C [13]: 108 % of control

SMILES: CC(=O)c1cc(C)[nH]c1C
- T/C (endpoint: mean survival time, dose: 50.0 mg/kg/injection, schedule: Q01DX009 (ip), vehicle: saline with Tween-80): 101 % of control
- T/C [6]: 100 % of control
- T/C [4]: 102 % of control
- T/C [7]: 103 % of control
- T/C [5]: 96 % of control
- T/C (endpoint: median survival time, dose: 100.0 mg/kg/injection, schedule: Q01DX001 (ip), vehicle: saline with Tween-80): 100 % of control
- T/C (endpoint: median survival time, dose: 200.0 mg/kg/injection, schedule: Q01DX001 (ip), vehicle: saline with Tween-80): 100 % of control

SMILES: NC(=O)NN=C1CCC1
- T/C [13]: 98 % of control

SMILES: CC(CN=Cc1ccccc1N)N=Cc1ccccc1N (stereo unspecified)
- T/C (endpoint: mean survival time, dose: 50.0 mg/kg/injection, schedule: Q04DX002 (ip), vehicle: saline with Tween-80): 93 % of control
- T/C [1]: 97 % of control
- T/C [2]: 97 % of control
- T/C [3]: 113 % of control

SMILES: O=C(O)C1OC12CCCCC2 (stereo unspecified)
- T/C [11]: 96 % of control
- T/C [12]: 100 % of control
- T/C (endpoint: mean survival time, dose: 200.0 mg/kg/injection, schedule: Q01DX009 (ip), vehicle: saline): 101 % of control
- T/C [14]: 101 % of control
- T/C (endpoint: mean survival time, dose: 400.0 mg/kg/injection, schedule: Q01DX009 (ip), vehicle: saline): 100 % of control
- T/C [15]: 103 % of control

SMILES: CCc1c2cc(OC)c(OC)cc2cc2c3cc(OC)c(OC)cc3cc[n+]12 (tested in a mixture with another compound)
- T/C (endpoint: mean survival time, dose: 14.6 mg/kg/injection, schedule: Q01DX009 (ip), vehicle: saline with Tween-80): 120 % of control
- T/C (endpoint: mean survival time, dose: 33.0 mg/kg/injection, schedule: Q01DX009 (ip), vehicle: saline with Tween-80): 117 % of control
- T/C [10]: 122 % of control
- T/C (endpoint: mean survival time, dose: 50.0 mg/kg/injection, schedule: Q04DX003 (ip), vehicle: saline): 122 % of control
- T/C [11]: 104 % of control
- T/C [12]: 121 % of control and 123 % of control
- T/C [14]: 101 % of control
- T/C [15]: 121 % of control and 98 % of control

SMILES: COc1ccc(N2CC=C(c3ccccc3)OP2(=O)N(CCCl)CCCl)cc1 (stereo unspecified)
- T/C (endpoint: mean survival time, dose: 31.25 mg/kg/injection, schedule: Q01DX001 (ip), vehicle: saline): 102 % of control
- T/C (endpoint: mean survival time, dose: 62.5 mg/kg/injection, schedule: Q01DX001 (ip), vehicle: saline): 100 % of control
- T/C (endpoint: mean survival time, dose: 125.0 mg/kg/injection, schedule: Q01DX001 (ip), vehicle: saline): 100 % of control
- T/C (endpoint: mean survival time, dose: 250.0 mg/kg/injection, schedule: Q01DX001 (ip), vehicle: saline): 100 % of control
- T/C (endpoint: mean survival time, dose: 500.0 mg/kg/injection, schedule: Q01DX001 (ip), vehicle: saline): 100 % of control

SMILES: c1ccc([Si]c2ccccc2)cc1
- T/C [4]: 104 % of control
- T/C [5]: 102 % of control
- T/C [9]: 102 % of control
